# Measured values reported in PMC6942878 (Analytical biochemistry, 2019).
# Target: murine double minute 2 (MDM2) (Homo sapiens, UniProt Q00987)
# Experiment: biochemical
# Format: binding
# Chain of murine double minute 2 (MDM2) (Q00987 3-155): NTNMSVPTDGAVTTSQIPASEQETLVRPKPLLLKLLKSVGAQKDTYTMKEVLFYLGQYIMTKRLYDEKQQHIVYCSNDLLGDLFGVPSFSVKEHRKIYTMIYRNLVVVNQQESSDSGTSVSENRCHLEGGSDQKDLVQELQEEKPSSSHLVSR
row,IC50 [nM],SMILES
1,367,CN1CCCC(n2nc(Cc3ccc(Cl)cc3)c3ccccc3c2=O)CC1 (centres unmarked) [azelastine]
2,206,CC(C)COCC(CN(Cc1ccccc1)c1ccccc1)N1CCCC1 (centres unmarked) [bepridil]
